US5804555A, “Antioxidant” (Morinaga Milk Industry Co., Ltd., priority 1992, dated 1998)

What was measured:
[1] = Test 2: inducing period of linoleic acid oxidation (days until absorbance of 0.2 is exceeded); format: biochemical; settings: single addition, final concentration 0.1% in linoleic acid
Procedure: The following 11 kinds of sample were prepared.
Sample 2: A sample prepared by adding a hydrolysate of lactoferrin (prepared by the same method as in the Example 2) to linoleic acid to achieve a final concentration of 0.1%;
Sample 3: A sample prepared by adding peptides (prepared by the same method as in the Example 3) to linoleic acid to achieve a final concentration of 0.1%;
Sample 4: A sample prepared by adding vitamin E (dl-α tocopherol the same one as in the Test 1) to linoleic acid to achieve a final concentration of 0.1%;
Sample 5: A sample prepared by adding superoxide dismutase (manufactured by Sigma Company) to linoleic acid to achieve a final concentration of 0.1%;
Sample 6: A sample prepared by adding β-carotene (manufactured by Nakaraitesk Company) to linoleic acid to achieve a final concentration of 0.1%;
Sample 7: A sample prepared by adding vitamin C (manufactured by Nakaraitesk Company) to linoleic acid to achieve a final concentration of 0.1%; […]
Absorbance was measured by the same method as in the Test 1, and with the number of days until an absorbance of 0.2 is exceeded as the inducing period, antioxidant effect was tested.

[2] = Test 1: antioxidant effect on linoleic acid, peroxides by ferric thiocyanate method; format: biochemical; settings: 0.2% added to linoleic acid, 60° C.
Procedure: A sample was prepared by adding dl-α tocopherol (manufactured by Wako Jun-yaku Kogyo Company), bovine lactoferrin (manufactured by Sigma Company), hydrolysate of lactoferrin (prepared by the same method as in the Example 2), or peptide (prepared by the same method as in the Example 3) to a final concentration of 0.2% (weight percentage; same applies hereafter except for the degree of decomposition) to commercially available linoleic acid (manufactured by Wako Jun-Yaku Kogyo Company) containing no additive. Hereafter, the thus prepared samples are individually referred to as […].
Antioxidant effect of the individual samples was tested by the method of Mitsuda et al.(Eiyo to Shokuryo, Vol. 19, p. 210, 1966) described below.
The above-mentioned samples were added to a mixed solution containing 10 ml of ethanol, 10 ml of 0.1M phosphate buffer solution (pH: 7.0), and 5 ml of deionized water so as to achieve a final concentration of linoleic acid of […](mol/l). This solution was placed in a vial bottle having a capacity of 50 ml, and the closely plugged bottle was held in an incubator at 60° C. The total volume was always adjusted to 25 ml by reducing the above-mentioned ionized water, depending upon the quantity of added sample. At prescribed time intervals, 0.1 ml was sampled from this vial bottle to measure the quantity of peroxides by the following ferric thiocyanate method.
To the sample solution in an amount of 0.1 ml, 4.7 ml of 75% ethanol, 0.1 ml of 30% ammonium rhodanide, and 0.1 ml of 3.5% hydrochloric acid solution of 2×10^-2 M ferrous chloride were added, and absorbance at 500 nm was measured upon the lapse of just three minutes.

O=C1O[C@H]([C@@H](O)CO)C(O)=C1O [Vitamin C, ascorbic acid]
Inducing period [1]: 8 days

Cc1c(C)c2c(c(C)c1O)CCC(C)(CCCC(C)CCCC(C)CCCC(C)C)O2 (racemic) [Sample 2, dl-α tocopherol]
Degree of peroxidation (absorbance at 500 nm) ([2]; period of preservation 0 days): 0 | Degree of peroxidation (absorbance at 500 nm) ([2]; period of preservation 3 days): 0.19 | Degree of peroxidation (absorbance at 500 nm) ([2]; period of preservation 6 days): 0.16 | Degree of peroxidation (absorbance at 500 nm) ([2]; period of preservation 10 days): 0.16 | Degree of peroxidation (absorbance at 500 nm) ([2]; period of preservation 13 days): 0.21 | Inducing period [1]: 8 days

Superoxide dismutase
Inducing period [1]: 10 days

CC1=C(/C=C/C(C)=C/C=C/C(C)=C/C=C/C=C(C)/C=C/C=C(C)/C=C/C2=C(C)CCCC2(C)C)C(C)(C)CCC1 [β-carotene]
Inducing period [1]: 14 days
